Data published in US20230200390A1, “SELECTIVE HERBICIDES BASED ON SUBSTITUTED ISOXAZOLIN CARBOXAMIDES AND MEFENPYR-DIETHYL” (BAYER AKTIENGESELLSCHAFT, priority 2020, published 2023).

What was measured:
Type in all cases: in vivo
[1] = test system: spring barley, HORVS Montoya; assay: Seed treatment with safener; post-emergence herbicide, crop damage; conditions: 21 DAT; for HER effect + SAF / Reduction [%] / Reduction [Difference]: mefenpyr-diethyl 0.5 g a.i./kg seed
Method in brief: (§1)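 Crop injury was rated visually in % at 10 and 21 days after post-emergence spraying at the 2-leaf stage. The herbicide was a WP in 300 l/ha water plus 1 l/ha MERO. Plants grew from seed either safener-coated at stated g a.i./kg rates via a milk-diluted slurry, or untreated.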

[2] = test system: spring barley, HORVS Montoya; assay: Tank-mix; post-emergence: crop damage by herbicide with/without safener mefenpyr-diethyl
Method in brief: (§2)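 Visual percent crop damage (0–100 relative to untreated plants) assessed 1–3 weeks post-application. Plants in sandy loam were sprayed at the 1–3-leaf stage with herbicide with or without safener at several rates, water volume 300 l/ha.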

[3] = test system: spring barley, HORVS Montoya; assay: Treatment 1 day before: safener applied one day before herbicide, crop damage
From the text: (§3) Seeds of crops (spring wheat, TRZAS; spring barley, HORVS; maize, ZEAMA) were placed in sandy loam soil in pots of a diameter of 7-8 cm, covered with soil, and cultivated in a greenhouse under good growth conditions until plants were at the 1-3 leaf stage (BBCH 11-13). For split safener and herbicide treatment, first the safener was applied followed by the herbicide treatment on the following day. The safener and herbicides were formulated as WP and sprayed onto the green parts of the plants as an aqueous suspension at an equivalent water application rate of 300 l/ha, with addition of wetting agent and adjuvants (e.g. Mero, 1.5 l/ha; ammonium sulphate, 2 kg/ha). An equivalent set of plants was treated with the herbicides but without the prior safener treatment.
(§4) After application, the test plants were kept in the greenhouse under good growth conditions. 10 and 21 days after treatment (DAT) with the herbicide, % crop damage observed on the treated plants was scored visually in comparison to control plants that had not received any safener or herbicide treatment.

[4] = test system: spring wheat, TRZAS Triso; assay: as above; conditions: 21 DAT
From the text: as §3, §4

[5] = test system: spring wheat, TRZAS Triso; assay: Seed treatment with safener; post-emergence herbicide, crop damage; conditions: 21 DAT; for HER effect + SAF [%] (crop damage) / Reduction [%] / Reduction [Difference]: mefenpyr-diethyl 0.5 g a.i./kg seed; for HER effect [%] (crop damage, herbicide without safener): no safener
Method in brief: as §1

[6] = test system: spring wheat, TRZAS Triso; assay: Tank-mix; post-emergence: crop damage by herbicide with/without safener mefenpyr-diethyl; conditions: 21 DAT
Method in brief: as §2

[7] = HER 12 g a.i./ha post-emergence
[8] = HER 48 g a.i./ha post-emergence
[9] = herbicide alone 48 g a.i./ha post-emergence
[10] = HER 48 g a.i./ha + mefenpyr-diethyl 100 g a.i./ha, 10 DAT
[11] = HER 50 g a.i./ha, mefenpyr-diethyl 50 g a.i./ha 1 day before, 10 DAT
[12] = HER 100 g a.i./ha, mefenpyr-diethyl 50 g a.i./ha 1 day before, 21 DAT
[13] = HER 200 g a.i./ha, mefenpyr-diethyl 50 g a.i./ha 1 day before
[14] = HER 25 g a.i./ha, mefenpyr-diethyl 50 g a.i./ha 1 day before, 21 DAT
[15] = HER 50 g a.i./ha, mefenpyr-diethyl 50 g a.i./ha 1 day before, 21 DAT
[16] = herbicide alone 25 g a.i./ha, 21 DAT
[17] = HER 100 g a.i./ha, mefenpyr-diethyl 50 g a.i./ha 1 day before
[18] = HER 48 g a.i./ha + mefenpyr-diethyl 100 g a.i./ha, 21 DAT
[19] = HER 4 g a.i./ha + mefenpyr-diethyl 50 g a.i./ha
[20] = HER 16 g a.i./ha + mefenpyr-diethyl 100 g a.i./ha
[21] = HER 25 g a.i./ha, mefenpyr-diethyl 50 g a.i./ha 1 day before
[22] = HER 50 g a.i./ha, mefenpyr-diethyl 50 g a.i./ha 1 day before
[23] = HER 100 g a.i./ha, mefenpyr-diethyl 100 g a.i./ha 1 day before, 10 DAT
[24] = HER 100 g a.i./ha, mefenpyr-diethyl 100 g a.i./ha 1 day before
[25] = HER 200 g a.i./ha, mefenpyr-diethyl 100 g a.i./ha 1 day before
[26] = HER 24 g a.i./ha post-emergence
[27] = HER 24 g a.i./ha + mefenpyr-diethyl 100 g a.i./ha, 21 DAT
[28] = HER 1.5 g a.i./ha + mefenpyr-diethyl 50 g a.i./ha
[29] = HER 6 g a.i./ha + mefenpyr-diethyl 50 g a.i./ha
[30] = HER 24 g a.i./ha + mefenpyr-diethyl 100 g a.i./ha

`CCOC(=O)C1C=CC(NC(=O)C2(C(F)(F)F)CC(c3cc(OC)cc(OC)c3)=NO2)C1` (mixture of isomers) [Example 1.12] was tested, and the “HER effect + SAF” value [1, 7] was 0%, the “Reduction [%]” value [1, 7] was 100% and the “Reduction [Difference]” value [1, 7] was 20. For the same molecule, the “HER effect + SAF” value [1, 8] was 20%, the “Reduction [%]” value [1, 8] was 60% and the “Reduction [Difference]” value [1, 8] was 30. The HER effect ([1]; herbicide alone 12 g a.i./ha post-emergence) was 20%, the HER effect [1, 9] was 50% and the “HER effect + SAF” value [2, 10] was 0%. For the same molecule, the “Reduction [%]” value [2, 10] was 100%, the “Reduction [Difference]” value [2, 10] was 60 and the HER effect ([2]; herbicide alone 48 g a.i./ha, 10 DAT) was 60%. The “HER effect + SAF” value [3, 11] was 20%, the “Reduction [%]” value [3, 11] was 64% and the “Reduction [Difference]” value [3, 11] was 35. The “HER effect + SAF” value [3, 12] was 50%, the “Reduction [%]” value [3, 12] was 29% and the “Reduction [Difference]” value [3, 12] was 20. The HER effect ([3]; herbicide alone 50 g a.i./ha, 10 DAT) was 55%, the HER effect ([3]; herbicide alone 100 g a.i./ha, 21 DAT) was 70% and the “HER effect + SAF” value [4, 13] was 20%. The “Reduction [%]” value [4, 13] was 50%, the “Reduction [Difference]” value [4, 13] was 20 and the HER effect ([4]; herbicide alone 200 g a.i./ha) was 40%.

`CC1(C(=O)NC2C=CC(C(=O)N3CCCCO3)C2)CC(c2cc(F)cc(F)c2)=NO1` (mixture of isomers) [Example 1.46] was tested, and the “HER effect + SAF” value [3, 14] was 10%, the “Reduction [%]” value [3, 14] was 78% and the “Reduction [Difference]” value [3, 14] was 35. The “HER effect + SAF” value [3, 15] was 20%, the “Reduction [%]” value [3, 15] was 69% and the “Reduction [Difference]” value [3, 15] was 45. For the same molecule, the HER effect [3, 16] was 45%, the HER effect ([3]; herbicide alone 50 g a.i./ha, 21 DAT) was 65% and the “HER effect + SAF” value [4, 17] was 5%. For the same molecule, the “Reduction [%]” value [4, 17] was 92%, the “Reduction [Difference]” value [4, 17] was 55 and the “HER effect + SAF” value [4, 13] was 5%. For the same molecule, the “Reduction [%]” value [4, 13] was 94%, the “Reduction [Difference]” value [4, 13] was 75 and the HER effect ([4]; herbicide alone 100 g a.i./ha) was 60%. The HER effect ([4]; herbicide alone 200 g a.i./ha) was 80%.

`CC1(C(=O)NC2C=CC(C(=O)OCCCl)C2)CC(c2cc(F)cc(F)c2)=NO1` (mixture of isomers) [Example 1.47] was tested, and the “HER effect + SAF” value [1, 8] was 20%, the “Reduction [%]” value [1, 8] was 76% and the “Reduction [Difference]” value [1, 8] was 65. For the same molecule, the HER effect [1, 9] was 85%, the “HER effect + SAF [%] (crop damage)” value ([5]; HER dose 4 g a.i./ha) was 0% and the “Reduction [%]” value ([5]; HER dose 4 g a.i./ha) was 100%. For the same molecule, the “Reduction [Difference]” value ([5]; HER dose 4 g a.i./ha) was 30, the “HER effect [%] (crop damage, herbicide without safener)” value ([5]; HER dose 4 g a.i./ha) was 30% and the “HER effect + SAF [%] (crop damage)” value ([5]; HER dose 16 g a.i./ha) was 10%. The “Reduction [%]” value ([5]; HER dose 16 g a.i./ha) was 88%, the “Reduction [Difference]” value ([5]; HER dose 16 g a.i./ha) was 70 and the “HER effect [%] (crop damage, herbicide without safener)” value ([5]; HER dose 16 g a.i./ha) was 80%. For the same molecule, the “HER effect + SAF” value [2, 18] was 60%, the “Reduction [%]” value [2, 18] was 29% and the “Reduction [Difference]” value [2, 18] was 25. The HER effect ([2]; herbicide alone 48 g a.i./ha, 21 DAT) was 85%, the “HER effect + SAF” value [6, 19] was 10% and the “Reduction [%]” value [6, 19] was 67%. The “Reduction [Difference]” value [6, 19] was 20, the “HER effect + SAF” value [6, 20] was 20% and the “Reduction [%]” value [6, 20] was 75%. For the same molecule, the “Reduction [Difference]” value [6, 20] was 60, the HER effect ([6]; herbicide alone 4 g a.i./ha) was 30% and the HER effect ([6]; herbicide alone 16 g a.i./ha) was 80%. The “HER effect + SAF” value [3, 14] was 40%, the “Reduction [%]” value [3, 14] was 33% and the “Reduction [Difference]” value [3, 14] was 20. For the same molecule, the HER effect [3, 16] was 60%, the “HER effect + SAF” value [4, 21] was 35% and the “Reduction [%]” value [4, 21] was 53%. For the same molecule, the “Reduction [Difference]” value [4, 21] was 40, the “HER effect + SAF” value [4, 22] was 60% and the “Reduction [%]” value [4, 22] was 25%. The “Reduction [Difference]” value [4, 22] was 20, the HER effect ([4]; herbicide alone 25 g a.i./ha) was 75% and the HER effect ([4]; herbicide alone 50 g a.i./ha) was 80%.

With `CCOC(=O)C1C=CC(NC(=O)C2(C(F)(F)F)CC(c3ccccc3)=NO2)C1` (stereo not drawn) [Example 1.9] the “HER effect + SAF” value [3, 23] was 20%, the “Reduction [%]” value [3, 23] was 50% and the “Reduction [Difference]” value [3, 23] was 20. The HER effect ([3]; herbicide alone 100 g a.i./ha, 10 DAT) was 40%, the “HER effect + SAF” value [4, 24] was 20% and the “Reduction [%]” value [4, 24] was 67%. The “Reduction [Difference]” value [4, 24] was 40, the “HER effect + SAF” value [4, 25] was 25% and the “Reduction [%]” value [4, 25] was 64%. For the same molecule, the “Reduction [Difference]” value [4, 25] was 45, the HER effect ([4]; herbicide alone 100 g a.i./ha) was 60% and the HER effect ([4]; herbicide alone 200 g a.i./ha) was 70%.

`C=CC1(C(=O)NC2C=C(C(=O)OCC#N)OC2)CC(c2cc(F)cc(F)c2)=NO1` (stereo not drawn) [Example 1.91] was tested, and the “HER effect + SAF” value [1, 26] was 10%, the “Reduction [%]” value [1, 26] was 67% and the “Reduction [Difference]” value [1, 26] was 20. For the same molecule, the HER effect ([1]; herbicide alone 24 g a.i./ha post-emergence) was 30%, the “HER effect + SAF [%] (crop damage)” value ([5]; HER dose 1.5 g a.i./ha) was 10% and the “Reduction [%]” value ([5]; HER dose 1.5 g a.i./ha) was 86%. For the same molecule, the “Reduction [Difference]” value ([5]; HER dose 1.5 g a.i./ha) was 60, the “HER effect [%] (crop damage, herbicide without safener)” value ([5]; HER dose 1.5 g a.i./ha) was 70% and the “HER effect + SAF [%] (crop damage)” value ([5]; HER dose 6 g a.i./ha) was 20%. The “Reduction [%]” value ([5]; HER dose 6 g a.i./ha) was 78%, the “Reduction [Difference]” value ([5]; HER dose 6 g a.i./ha) was 70 and the “HER effect [%] (crop damage, herbicide without safener)” value ([5]; HER dose 6 g a.i./ha) was 90%. For the same molecule, the “HER effect + SAF [%] (crop damage)” value ([5]; HER dose 24 g a.i./ha) was 10%, the “Reduction [%]” value ([5]; HER dose 24 g a.i./ha) was 88% and the “Reduction [Difference]” value ([5]; HER dose 24 g a.i./ha) was 70. The “HER effect [%] (crop damage, herbicide without safener)” value ([5]; HER dose 24 g a.i./ha) was 80%, the “HER effect + SAF” value [2, 27] was 10% and the “Reduction [%]” value [2, 27] was 67%. For the same molecule, the “Reduction [Difference]” value [2, 27] was 20, the HER effect ([2]; herbicide alone 24 g a.i./ha, 21 DAT) was 30% and the “HER effect + SAF” value [6, 28] was 0%. For the same molecule, the “Reduction [%]” value [6, 28] was 100%, the “Reduction [Difference]” value [6, 28] was 70 and the “HER effect + SAF” value [6, 29] was 20%. For the same molecule, the “Reduction [%]” value [6, 29] was 78%, the “Reduction [Difference]” value [6, 29] was 70 and the “HER effect + SAF” value [6, 30] was 50%. For the same molecule, the “Reduction [%]” value [6, 30] was 38%, the “Reduction [Difference]” value [6, 30] was 30 and the HER effect ([6]; herbicide alone 1.5 g a.i./ha) was 70%. It also gave an HER effect ([6]; herbicide alone 6 g a.i./ha) of 90% and an HER effect ([6]; herbicide alone 24 g a.i./ha) of 80%.
